Test results taken from patent US12371454B2, “Cyclic peptide compound having Kras inhibitory action” (priority 2019, dated 2025).
Starred links: 1 amine or outer side, 2 acyl side, 3 side chain; linkers in the order of their positions; H or OH if unused. Positions of bridges follow the written chain, without caps; N, C: chain ends. Non-standard residues stand in square brackets, D forms with d. Residues, ends and D or L forms follow the SMILES beside them. *: point of attachment. hPhe(3,5-F2-4-CF3) = N[C@@H](CCc1cc(F)c(C(F)(F)F)c(F)c1)C(=O)O; hPhe(3-Cl-4-CF3) = N[C@@H](CCc1ccc(C(F)(F)F)c(Cl)c1)C(=O)O; hPhe(3-F,4-CF3) = N[C@@H](CCc1ccc(C(F)(F)F)c(F)c1)C(=O)O; NMeAbu(4,4,4-F3) = CN[C@@H](CC(F)(F)F)C(=O)O; NMedβ3hAla = C[C@H](CC(=O)[*:2])N(C)[*:1]; NMePhe(2-F) = CN[C@@H](Cc1ccccc1F)C(=O)O; NMeGly(cPent) = CN[C@H](C(=O)O)C1CCCC1; Pro(4,4-F2) = O=C(O)[C@@H]1CC(F)(F)CN1; NMeGly(cBu) = CN[C@H](C(=O)O)C1CCC1; NMeCha = CN[C@@H](CC1CCCCC1)C(=O)O; NEtLeu = CCN[C@@H](CC(C)C)C(=O)O; NMeChg = CN[C@H](C(=O)O)C1CCCCC1; NMeI = CC[C@H](C)[C@H](NC)C(=O)O; NMeD = CN[C@@H](CC(=O)O)C(=O)O; NMeL = CN[C@@H](CC(C)C)C(=O)O; NMeV = CN[C@H](C(=O)O)C(C)C; d(β3hA) = C[C@@H](N)CC(=O)O; NMeS = CN[C@@H](CO)C(=O)O; Iva = CC[C@](C)(N)C(=O)O; Morpholide = C1CN(*)CCO1; Piperidide = C1CCN(*)CC1; Ac5c = NC1(C(=O)O)CCCC1; Aze = O=C(O)[C@@H]1CCN1; Sar = CNCC(=O)O; Propyl = CCC*

Columns and labels:
[1] = tested on: Human pancreatic cancer cell line AsPC-1; assay: Measurement of AsPC-1 cell growth inhibition (AsPC-1 CGI); format: cell-based; details: 96 h
Summary of the method: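 AsPC-1 cells in 15% FBS RPMI-1640 were exposed to test compound for 96 hours at 37° C, with CellTiter-Glo as endpoint.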

[2] = biological target: T1, Kras and SOS1 (biotin-tagged human Kras loaded with GDP, His-tagged human SOS1) (Homo sapiens, UniProt P01116, G12D); assay: Protein-protein interaction inhibition between Kras and SOS1 (KrasGl2D-SOS PPI) using AlphaScreen; format: binding; details: AlphaScreen; biotin-tagged human Kras loaded with GDP, His-tagged human SOS1; read-out: KRAS G12D-SOS PPI IC50
T1 construct: made in house; host or cells: E. coli (stated for Kras only)
Summary of the method: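 Donor beads (nickel) hold His-SOS1; acceptor beads (streptavidin) hold biotin-Kras bound to GDP. Signal measured at 520-620 nm following 680 nm excitation.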

T1 sequence (P01116 1-188 isoform P01116-2 G12D): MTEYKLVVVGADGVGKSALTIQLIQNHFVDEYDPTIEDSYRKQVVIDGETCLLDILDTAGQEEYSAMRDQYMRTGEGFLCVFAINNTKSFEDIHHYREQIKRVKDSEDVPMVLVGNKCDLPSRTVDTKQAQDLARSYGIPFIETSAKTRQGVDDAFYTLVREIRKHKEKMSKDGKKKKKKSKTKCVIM

| SMILES | IC50 [1] [nM] | IC50 [2] [nM] |
| --- | --- | --- |
| CC[C@H](C)[C@@H]1NC(=O)[C@H](CC(C)C)N(C)C(=O)C[C@@H](C)N(C)C(=O)[C@H](C(C)C)N(C)C(=O)[C@](C)(CC)NC(=O)[C@@H]2CCCN2C(=O)[C@H](CCc2ccc(C(F)(F)F)c(Cl)c2)NC(=O)CN(C)C(=O)[C@H](CC2CCCCC2)N(C)C(=O)CN(C)C(=O)CN(C)C1=O [Compound 944] (cyclo(I[Sar][Sar][NMeCha][Sar][hPhe(3-Cl-4-CF3)]P[Iva][NMeV][NMedβ3hAla][NMeL])) | 100 to 500 | 18 |
| CC[C@H](C)[C@@H]1NC(=O)[C@H](CC(C)C)N(CC)C(=O)C[C@@H](C(=O)N(C)C)N(C)C(=O)[C@H](C2CCCC2)N(C)C(=O)C2(CCCC2)NC(=O)[C@@H]2CCCN2C(=O)[C@H](CCc2ccc(C(F)(F)F)c(F)c2)NC(=O)CN(C)C(=O)[C@H](CC2CCCCC2)N(C)C(=O)[C@@H]2CCN2C(=O)[C@H](C)NC1=O [Compound 1252] ([NEtLeu]IA[Aze][NMeCha][Sar][hPhe(3-F,4-CF3)]P[Ac5c][NMeGly(cPent)][NMeD]-NMe2; lactam N-11) | 100 to 500 | 2.5 |
| CC[C@H](C)[C@@H]1NC(=O)[C@H](CC(C)C)N(C)C(=O)C[C@@H](C(=O)N2CCCCC2)N(C)C(=O)[C@H](C2CCCCC2)N(C)C(=O)C2(CCCC2)NC(=O)[C@@H]2CC(F)(F)CN2C(=O)[C@H](CCc2ccc(C(F)(F)F)c(Cl)c2)NC(=O)CN(C)C(=O)[C@H](CC2CCCCC2)N(C)C(=O)CN(C)C(=O)CN(C)C1=O [Compound 48] ([NMeL]I[Sar][Sar][NMeCha][Sar][hPhe(3-Cl-4-CF3)][Pro(4,4-F2)][Ac5c][NMeChg][NMeD]-Piperidide; lactam N-11) | 20 to 50 | 0.97 |
| CCCOC[C@H]1C(=O)N(C)CC(=O)N[C@@H](CCc2ccc(C(F)(F)F)c(Cl)c2)C(=O)N2CCC[C@H]2C(=O)NC2(CCCC2)C(=O)N(C)[C@@H](C2CCCCC2)C(=O)N(C)[C@H](C(=O)N2CCOCC2)CC(=O)N(C)[C@@H](C2CCC2)C(=O)N[C@@H]([C@@H](C)CC)C(=O)N(C)CC(=O)N(C)CC(=O)N1C [Compound 853] ([NMeGly(cBu)]I[Sar][Sar][NMeS](Propyl)[Sar][hPhe(3-Cl-4-CF3)]P[Ac5c][NMeChg][NMeD]-Morpholide; lactam N-11) | 100 to 500 | 0.62 |
| CCCOC[C@H]1C(=O)N(C)CC(=O)N[C@@H](CCc2ccc(C(F)(F)F)c(Cl)c2)C(=O)N2CCC[C@H]2C(=O)NC2(CCCC2)C(=O)N(C)[C@@H](C2CCCCC2)C(=O)N(C)[C@H](C(=O)N2CCOCC2)CC(=O)N(C)[C@@H](CC(F)(F)F)C(=O)N[C@@H]([C@@H](C)CC)C(=O)N(C)CC(=O)N(C)CC(=O)N1C [Compound 445] ([NMeAbu(4,4,4-F3)]I[Sar][Sar][NMeS](Propyl)[Sar][hPhe(3-Cl-4-CF3)]P[Ac5c][NMeChg][NMeD]-Morpholide; lactam N-11) | 100 to 500 | 0.67 |
| CC[C@H](C)[C@@H]1NC(=O)[C@H](CC(C)C)N(C)C(=O)C[C@@H](C)N(C)C(=O)[C@H]([C@@H](C)CC)N(C)C(=O)C2(CCCC2)NC(=O)[C@@H]2CCCN2C(=O)[C@H](CCc2ccc(C(F)(F)F)c(Cl)c2)NC(=O)CN(C)C(=O)[C@H](CC2CCCCC2)N(C)C(=O)CN(C)C(=O)CN(C)C1=O [Compound 904] (cyclo([Ac5c][NMeI][NMedβ3hAla][NMeL]I[Sar][Sar][NMeCha][Sar][hPhe(3-Cl-4-CF3)]P)) | 50 to 100 | 7.3 |
| CC[C@H](C)[C@@H]1NC(=O)[C@H](CC(C)C)N(C)C(=O)C[C@@H](C)NC(=O)[C@H](CC(C)C)N(C)C(=O)C2(CCCC2)NC(=O)[C@@H]2CCCN2C(=O)[C@H](CCc2cc(F)c(C(F)(F)F)c(F)c2)NC(=O)CN(C)C(=O)[C@H](CC2CCCCC2)N(C)C(=O)CN(C)C(=O)CN(C)C1=O [Compound 364] (cyclo([Ac5c][NMeL][d(β3hA)][NMeL]I[Sar][Sar][NMeCha][Sar][hPhe(3,5-F2-4-CF3)]P)) | 100 to 500 | 9.7 |
| CC[C@H](C)[C@@H]1NC(=O)[C@H](CC(C)C)N(C)C(=O)C[C@@H](C)N(C)C(=O)[C@H](C(C)C)N(C)C(=O)C2(CCCC2)NC(=O)[C@@H]2CCCN2C(=O)[C@H](CCc2ccc(C(F)(F)F)c(Cl)c2)NC(=O)CN(C)C(=O)[C@H](Cc2ccccc2F)N(C)C(=O)CN(C)C(=O)CN(C)C1=O [Compound 1599] (cyclo([Ac5c][NMeV][NMedβ3hAla][NMeL]I[Sar][Sar][NMePhe(2-F)][Sar][hPhe(3-Cl-4-CF3)]P)) | 100 to 500 | 17 |
